# Measurements as given in the supplement of paper PMC5908809.
# Tests used:
# [1] = system: NK-YS (IL-2 2.5 ng/mL); test: percent inhibition of viability; higher = more inhibition; conditions: 72 h
# [2] = system: DERL-7 (IL-2 2.5 ng/mL); test: as above; conditions: 72 h
# [3] = system: normal primary NK cells, pool 1 (3 donors), resting (IL-2 0 ng/mL); test: as above; conditions: 72 h
# [4] = system: KAI3 (IL-2 2.5 ng/mL); test: as above; conditions: 72 h
# [5] = system: NKL (IL-2 2.5 ng/mL); test: as above; conditions: 72 h
# [6] = system: NK-92 (IL-2 2.5 ng/mL); test: as above; conditions: 72 h
# [7] = system: YT (IL-2 2.5 ng/mL); test: as above; conditions: 72 h
# [8] = system: normal primary NK cells, pool 2 (3 donors) (IL-2 2.5 ng/mL); test: as above; conditions: 72 h
# [9] = system: SNK-6 (IL-2 2.5 ng/mL); test: as above; conditions: 72 h
# [10] = system: normal primary NK cells, pool 3 (3 donors) (IL-2 2.5 ng/mL); test: as above; conditions: 72 h
# [11] = system: IMC-1 (IL-2 20 ng/mL); test: as above; conditions: 72 h
# [12] = system: normal primary NK cells, pool 1 (3 donors) (IL-2 2.5 ng/mL); test: as above; conditions: 72 h
# [13] = system: KHYG-1 (IL-2 2.5 ng/mL); test: as above; conditions: 72 h
# [14] = system: normal NK cells expanded with K562-aAPC; test: drug sensitivity score (DSS) (DSS units); higher = more sensitive; extreme values may be limits of the assay; conditions: 72 h; IL-2 2.5 ng/mL
# Protocol: (§1)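 Drug sensitivity and resistance testing on K562-aAPC-expanded normal NK cells: 5 concentrations (10-fold steps over a 10,000-fold range), 72 h at 37 °C, viability by CellTiter-Glo normalised to DMSO and benzethonium chloride controls; DSS from the fitted curve.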
# [15] = system: normal NK cells expanded with K562-aAPC; test: percent inhibition of viability; higher = more inhibition; conditions: 72 h, IL-2 2.5 ng/mL
# Protocol: as §1
# [16] = system: NK-YS (IL-2 2.5 ng/mL); test: drug sensitivity score (DSS) (DSS units); higher = more sensitive; extreme values may be limits of the assay; conditions: 72 h
# [17] = system: DERL-7 (IL-2 2.5 ng/mL); test: as above; conditions: 72 h
# [18] = system: normal primary NK cells, pool 1 (3 donors), resting (IL-2 0 ng/mL); test: as above; conditions: 72 h
# [19] = system: KAI3 (IL-2 2.5 ng/mL); test: as above; conditions: 72 h
# [20] = system: NKL (IL-2 2.5 ng/mL); test: as above; conditions: 72 h
# [21] = system: NK-92 (IL-2 2.5 ng/mL); test: as above; conditions: 72 h
# [22] = system: YT (IL-2 2.5 ng/mL); test: as above; conditions: 72 h
# [23] = system: normal primary NK cells, pool 2 (3 donors) (IL-2 2.5 ng/mL); test: as above; conditions: 72 h
# [24] = system: SNK-6 (IL-2 2.5 ng/mL); test: as above; conditions: 72 h
# [25] = system: normal primary NK cells, pool 3 (3 donors) (IL-2 2.5 ng/mL); test: as above; conditions: 72 h
# [26] = system: IMC-1 (IL-2 20 ng/mL); test: as above; conditions: 72 h
# [27] = system: normal primary NK cells, pool 1 (3 donors) (IL-2 2.5 ng/mL); test: as above; conditions: 72 h
# [28] = system: KHYG-1 (IL-2 2.5 ng/mL); test: as above; conditions: 72 h
smiles,measurement,setting,value
Cc1ccc(NC(=O)c2ccc(CN3CC[C@H](N(C)C)C3)c(C(F)(F)F)c2)cc1Nc1nccc(-c2cncnc2)n1 [Bafetinib] (max concentration tested 1000 nM),percent inhibition of viability,[1]; 0.1 nM,-4.77%
same,percent inhibition of viability,[1]; 1 nM,-6.95%
same,percent inhibition of viability,[1]; 10 nM,-3.78%
same,percent inhibition of viability,[1]; 100 nM,-1.77%
same,percent inhibition of viability,[1]; 1000 nM,18.9%
same,percent inhibition of viability,[2]; 0.1 nM,-14%
same,percent inhibition of viability,[2]; 1 nM,2.29%
same,percent inhibition of viability,[2]; 10 nM,-3.89%
same,percent inhibition of viability,[2]; 100 nM,-8.4%
same,percent inhibition of viability,[2]; 1000 nM,14.2%
same,percent inhibition of viability,[3]; 0.1 nM,-11.6%
same,percent inhibition of viability,[3]; 1 nM,-4.75%
same,percent inhibition of viability,[3]; 10 nM,5.74%
same,percent inhibition of viability,[3]; 100 nM,-0.62%
same,percent inhibition of viability,[3]; 1000 nM,2.62%
same,percent inhibition of viability,[4]; 0.1 nM,0.47%
same,percent inhibition of viability,[4]; 1 nM,0.29%
same,percent inhibition of viability,[4]; 10 nM,2.91%
same,percent inhibition of viability,[4]; 100 nM,12%
same,percent inhibition of viability,[4]; 1000 nM,41.7%
same,percent inhibition of viability,[5]; 0.1 nM,5.49%
same,percent inhibition of viability,[5]; 1 nM,-2.75%
same,percent inhibition of viability,[5]; 10 nM,4.28%
same,percent inhibition of viability,[5]; 100 nM,18%
same,percent inhibition of viability,[5]; 1000 nM,50.2%
same,percent inhibition of viability,[6]; 0.1 nM,-11.6%
same,percent inhibition of viability,[6]; 1 nM,-4.05%
same,percent inhibition of viability,[6]; 10 nM,0.45%
same,percent inhibition of viability,[6]; 100 nM,9.61%
same,percent inhibition of viability,[6]; 1000 nM,26.8%
same,percent inhibition of viability,[7]; 0.1 nM,-6.07%
same,percent inhibition of viability,[7]; 1 nM,-5.69%
same,percent inhibition of viability,[7]; 10 nM,-1.09%
same,percent inhibition of viability,[7]; 100 nM,1.37%
same,percent inhibition of viability,[7]; 1000 nM,19.6%
same,percent inhibition of viability,[8]; 0.1 nM,-9.03%
same,percent inhibition of viability,[8]; 1 nM,-9.08%
same,percent inhibition of viability,[8]; 10 nM,-6.83%
same,percent inhibition of viability,[8]; 100 nM,2.13%
same,percent inhibition of viability,[8]; 1000 nM,11.8%
same,percent inhibition of viability,[9]; 0.1 nM,-21%
same,percent inhibition of viability,[9]; 1 nM,16.9%
same,percent inhibition of viability,[9]; 10 nM,-16.6%
same,percent inhibition of viability,[9]; 100 nM,-25.9%
same,percent inhibition of viability,[9]; 1000 nM,-21.8%
same,percent inhibition of viability,[10]; 0.1 nM,-3.5%
same,percent inhibition of viability,[10]; 1 nM,-5.78%
same,percent inhibition of viability,[10]; 10 nM,-5.64%
same,percent inhibition of viability,[10]; 100 nM,-5.35%
same,percent inhibition of viability,[10]; 1000 nM,13.7%
same,percent inhibition of viability,[11]; 0.1 nM,-6.49%
same,percent inhibition of viability,[11]; 1 nM,-4.43%
same,percent inhibition of viability,[11]; 10 nM,-0.85%
same,percent inhibition of viability,[11]; 100 nM,0.31%
same,percent inhibition of viability,[11]; 1000 nM,1.78%
same,percent inhibition of viability,[12]; 0.1 nM,-1.48%
same,percent inhibition of viability,[12]; 1 nM,-8.42%
same,percent inhibition of viability,[12]; 10 nM,-2.74%
same,percent inhibition of viability,[12]; 100 nM,1.21%
same,percent inhibition of viability,[12]; 1000 nM,12%
same,percent inhibition of viability,[13]; 0.1 nM,-4.48%
same,percent inhibition of viability,[13]; 1 nM,-4.63%
same,percent inhibition of viability,[13]; 10 nM,1.74%
same,percent inhibition of viability,[13]; 100 nM,7.43%
same,percent inhibition of viability,[13]; 1000 nM,22.3%
same,drug sensitivity score,[14],1.77
same,percent inhibition of viability,[15]; 0.1 nM,-3.13%
same,percent inhibition of viability,[15]; 1 nM,-5.16%
same,percent inhibition of viability,[15]; 10 nM,-2.83%
same,percent inhibition of viability,[15]; 100 nM,2.67%
same,percent inhibition of viability,[15]; 1000 nM,30.9%
same,drug sensitivity score,[16],0.42
same,drug sensitivity score,[17],0.06
same,drug sensitivity score,[18],0
same,drug sensitivity score,[19],3.8
same,drug sensitivity score,[20],4.77
same,drug sensitivity score,[21],2.35
same,drug sensitivity score,[22],0.72
same,drug sensitivity score,[23],0.12
same,drug sensitivity score,[24],0
same,drug sensitivity score,[25],0.06
same,drug sensitivity score,[26],0
same,drug sensitivity score,[27],0.1
same,drug sensitivity score,[28],1.5
